Where “and” joins values, the source holds several entries; their conditions need not be identical. Equal values may be shown once. Residues, ends and D or L forms follow the SMILES beside them.
Experiments:
[1] = test system: A. baumannii FADDI-AB051; test: Neutropenic mouse pneumonia model; type: in vivo; settings: for Tukey HSD diff, Pre-treatment minus treated group (Log10 CFU/lung) / Tukey HSD diff, Vehicle minus treated group (Log10 CFU/lung): Fig. b; for Log10 CFU/lung: Figure 3b, individual mice
Description: (§1) The experimental methodology for the neutropenic mouse lung infection model was previously described in detail. Briefly, Swiss mice (female, 7-week-old, 22–28 g) were rendered neutropenic by intraperitoneal administration of cyclophosphamide, 4 days (150 mg/kg) and 1 day (100 mg/kg) prior to inoculation. Lung infection was established by the administration of 25 µL of early log-phase bacterial suspension (polymyxin-susceptible or resistant isolate, 4 × 10^7 CFU/mL), directly into the lungs via the trachea using a MicroSprayer™ device. Lipopeptide solutions were prepared in sterile saline. At 2 h after inoculation, mice (n = 3 or 4) were administered lipopeptide (45–240 mg/kg/d free base) or control (sterile saline) via an intraperitoneal or subcutaneous bolus injection in three divided doses every 8 h. At 0 or 24 h after the administration of lipopeptide solution or saline (control), animals were euthanized and lungs were collected and homogenized under sterile conditions. Homogenate was filtered and the filtrate was collected, serially diluted in sterile saline, and spread on nutrient agar plates. Agar plates were incubated at 37 °C overnight for bacterial colony counting and the bacterial load of the lung (log10 CFU/lung) in each mouse was calculated. In vivo efficacy was calculated as the difference of the log10 CFU/lung values between the treated mice at 24 h and the pre-treatment (control) at 0 h (Δlog10 CFU/lung = log10 [treated] CFU/lung − log10 [pre-treatment] CFU/lung).

[2] = test system: K. pneumoniae FADDI-KP065; test: Neutropenic mouse pneumonia model; type: in vivo; settings: for Tukey HSD diff, Pre-treatment minus treated group (Log10 CFU/lung) / Tukey HSD diff, Vehicle minus treated group (Log10 CFU/lung): Fig. c; for Log10 CFU/lung: Figure 3c, individual mice
Description: as §1

[3] = test system: P. aeruginosa FADDI-PA038; test: Neutropenic mouse pneumonia model; type: in vivo; settings: for Tukey HSD diff, Pre-treatment minus treated group (Log10 CFU/lung) / Tukey HSD diff, Vehicle minus treated group (Log10 CFU/lung): Fig. a; for Log10 CFU/lung: Figure 3a, individual mice
Description: as §1

[4] = test system: A. baumannii FADDI-AB156; test: Neutropenic mouse pneumonia model, polymyxin-resistant isolate; type: in vivo; settings: for Tukey HSD diff, Pre-treatment minus treated group (Log10 CFU/lung) / Tukey HSD diff, Vehicle minus treated group (Log10 CFU/lung): Fig. e; for Log10 CFU/lung: Figure 3e, individual mice
Description: as §1

[5] = test system: K. pneumoniae FADDI-KP132 (mcr-1 positive); test: as above; type: in vivo; settings: for Tukey HSD diff, Pre-treatment minus treated group (Log10 CFU/lung) / Tukey HSD diff, Vehicle minus treated group (Log10 CFU/lung): Fig. f; for Log10 CFU/lung: Figure 3f, individual mice
Description: as §1

[6] = test system: P. aeruginosa FADDI-PA102; test: as above; type: in vivo; settings: for Tukey HSD diff, Pre-treatment minus treated group (Log10 CFU/lung) / Tukey HSD diff, Vehicle minus treated group (Log10 CFU/lung): Fig. d; for Log10 CFU/lung: Figure 3d, individual mice
Description: as §1

[7] = test system: A. baumannii FADDI-AB30; test: Neutropenic mouse thigh infection model; type: in vivo
Description: The experimental methodology for the neutropenic mouse thigh infection model was previously described in detail. Briefly, Swiss mice (female, 7-week-old, 22–28 g) were rendered neutropenic by intraperitoneal administration of cyclophosphamide 4 days (150 mg/kg) and 1 day (100 mg/kg) prior to inoculation. Thigh infection was established by the administration of a 50 µL bolus of early log-phase bacterial suspension (4 × 10^8 CFU/mL) directly into each thigh of two mice in each group (n = 4 thighs); this method is well accepted in antibiotic pharmacokinetic/ pharmacodynamic studies to minimize animal usage. Lipopeptide solutions were prepared in sterile saline. At 2 h after inoculation, mice were administered a lipopeptide or control solution via an intraperitoneal bolus injection at 15 mg/kg, three doses every 8 h. At 0 and 24 h after the administration, animals were euthanized and each thigh was collected and homogenized under sterile conditions. Homogenate was filtered and the filtrate was collected, serially diluted in sterile saline, and spread on nutrient agar plates. Agar plates were incubated at 37 °C overnight for bacterial colony counting and the bacterial load of both thighs (log10 CFU/thigh) in each mouse was calculated. In vivo efficacy was calculated as the difference of the log10 CFU/thigh values between the treated mice at 24 h and the pre-treatment (control) at 0 h (Δlog10 CFU/thigh = log10 [treated] CFU/thigh − log10 [pre-treatment] CFU/thigh).

[8] = Plasma pharmacokinetics in mice; type: in vivo, mouse
Description: The plasma pharmacokinetic profiles of F365 and polymyxin B were assessed in Swiss mice (female, 7-week-old, 22–28 g) after a single intraperitoneal dose (5 mg/kg, n = 3). Blood samples were collected at various time points over 24 h post dosing for analysis. The plasma pharmacokinetic profiles of F365 (n = 5) and polymyxin B (1 mg/kg, n = 11) in Sprague-Dawley rats (male, 10-week-old, 280 to 330 g) were assessed after intravenous administration (1 min) of F365 and polymyxin B via an indwelling jugular vein cannula. Blood samples (~0.3 mL) were collected via an indwelling carotid artery cannula at various time points over 24 h post dosing. Urine samples were collected at 4 °C using a metabolic cage during the period between 0 and 24 h post dosing. Concentrations of F365 and polymyxin B in plasma and urine samples were determined using LC-MS/MS and pharmacokinetic analysis was conducted using WinNonlin (Pharsight Corp., Mountain View, CA). The ELF pharmacokinetic profiles of F365 and polymyxin B was determined in neutropenic Swiss mice (female, 7-week-old, 22–28 g) after subcutaneous injection (40 mg/kg, n = 3). Bronchoalveolar lavage (BAL) samples were collected at various time points over 24 h post dosing from the cannulated trachea using Milli-Q water as BAL washing media. The average volume of ELF in mice was calculated by the ratio of urea concentrations in plasma and BAL samples. Concentrations of F365 and polymyxin B in plasma and BAL were analyzed by LC-MS/MS. Pharmacokinetic parameters were calculated using a non-compartment model with WinNonlin. For mouse, rat, and human plasma protein binding of F365 and polymyxin B, pooled plasma samples (n = 3) from each species were spiked with F365 or polymyxin B. The spiked plasma samples were subjected to ultrafiltration and the corresponding filtrates were analyzed by LC-MS/MS to determine the concentration of F365 and polymyxin B and the protein binding in each species.

[9] = 45 mg/kg/d IP in three divided doses every 8 h
[10] = 90 mg/kg/d IP in three divided doses every 8 h

## CC[C@@H]1NC(=O)[C@@H](CC(C)C)NC(=O)[C@H](CCN)NC(=O)[C@@H](NC(=O)[C@H](CN)NC(=O)[C@@H](NC(=O)[C@H](CCN)NC(=O)c2ccc(Cl)cc2Cl)[C@@H](C)O)CCNC(=O)[C@H]([C@@H](C)O)NC(=O)[C@H](CCN)NC(=O)[C@H](CCN)NC1=O [Lipopeptide F365] (HELM PEPTIDE1{[O=C(c1ccc(Cl)cc1Cl)[*:2]].[Dab].T.[NC[C@H](N[*:1])C(=O)[*:2]].[Dab].[Dab].[dL].[Abu].[Dab].[Dab].T}$PEPTIDE1,PEPTIDE1,5:R3-11:R2$$$V2.0)
[1]; [9]
  bacterial killing in lung at 24 h vs pre-treatment inoculum: did not show any significant killing
[1]; [10]
  bacterial killing in lung at 24 h: bacterial killing
[1]; 45mg/kg/d
  Tukey HSD diff, Pre-treatment minus treated group (Log10 CFU/lung): -1.2425
  Tukey HSD diff, Vehicle minus treated group (Log10 CFU/lung): 0.7467
  Log10 CFU/lung: 7.89 Log10 CFU/lung and 8.25 Log10 CFU/lung and 7.87 Log10 CFU/lung and 7.93 Log10 CFU/lung
[1]; 90mg/kg/d
  Tukey HSD diff, Pre-treatment minus treated group (Log10 CFU/lung): 2.8025
  Tukey HSD diff, Vehicle minus treated group (Log10 CFU/lung): 4.792
  Log10 CFU/lung: 3.25 Log10 CFU/lung and 3.88 Log10 CFU/lung and 6.08 Log10 CFU/lung and 2.55 Log10 CFU/lung
[2]; [9]
  bacterial killing in lung at 24 h vs pre-treatment inoculum: did not show any significant killing
[2]; [10]
  bacterial killing in lung at 24 h: bacterial killing
[2]; 45mg/kg/d
  Tukey HSD diff, Pre-treatment minus treated group (Log10 CFU/lung): 0.265
  Tukey HSD diff, Vehicle minus treated group (Log10 CFU/lung): 2.146
  Log10 CFU/lung: 4.76 Log10 CFU/lung and 7.31 Log10 CFU/lung and 6.40 Log10 CFU/lung and 7.13 Log10 CFU/lung
[2]; 90mg/kg/d
  Tukey HSD diff, Pre-treatment minus treated group (Log10 CFU/lung): 2.6475
  Tukey HSD diff, Vehicle minus treated group (Log10 CFU/lung): 4.5285
  Log10 CFU/lung: 5.21 Log10 CFU/lung and 3.53 Log10 CFU/lung and 3.48 Log10 CFU/lung and 3.85 Log10 CFU/lung
[3]; [9]
  bacterial killing in lung at 24 h vs pre-treatment inoculum: did not show any significant killing
[3]; [10]
  bacterial killing in lung at 24 h: bacterial killing
[3]; 45mg/kg/d
  Tukey HSD diff, Pre-treatment minus treated group (Log10 CFU/lung): -0.4375
  Tukey HSD diff, Vehicle minus treated group (Log10 CFU/lung): 2.481
  Log10 CFU/lung: 7.09 Log10 CFU/lung and 6.80 Log10 CFU/lung and 6.82 Log10 CFU/lung and 6.79 Log10 CFU/lung
[3]; 90mg/kg/d
  Tukey HSD diff, Pre-treatment minus treated group (Log10 CFU/lung): 1.005
  Tukey HSD diff, Vehicle minus treated group (Log10 CFU/lung): 3.9235
  Log10 CFU/lung: 5.12 Log10 CFU/lung and 5.34 Log10 CFU/lung and 5.83 Log10 CFU/lung and 5.44 Log10 CFU/lung
[4]; 120mg/kg/d
  Tukey HSD diff, Pre-treatment minus treated group (Log10 CFU/lung): 2.4325
  Tukey HSD diff, Vehicle minus treated group (Log10 CFU/lung): 3.826
  Log10 CFU/lung: 4.13 Log10 CFU/lung and 5.08 Log10 CFU/lung and 3.12 Log10 CFU/lung
[4]; 240mg/kg/d
  Tukey HSD diff, Pre-treatment minus treated group (Log10 CFU/lung): 4.209
  Tukey HSD diff, Vehicle minus treated group (Log10 CFU/lung): 5.603
  Log10 CFU/lung: 1.94 Log10 CFU/lung and 2.42 Log10 CFU/lung and 2.64 Log10 CFU/lung
[5]; 240 mg/kg/d subcutaneously, 24 h, maximum over the polymyxin-resistant isolates
  reduction in CFU/lung: up to 4.65 log10 CFU/lung
[5]; 120mg/kg/d
  Tukey HSD diff, Pre-treatment minus treated group (Log10 CFU/lung): 1.795
  Tukey HSD diff, Vehicle minus treated group (Log10 CFU/lung): 4.6875
  Log10 CFU/lung: 4.02 Log10 CFU/lung and 5.39 Log10 CFU/lung and 2.64 Log10 CFU/lung and 2.94 Log10 CFU/lung
[5]; 240mg/kg/d
  Tukey HSD diff, Pre-treatment minus treated group (Log10 CFU/lung): 4.6475
  Tukey HSD diff, Vehicle minus treated group (Log10 CFU/lung): 7.54
  Log10 CFU/lung: 0.00 Log10 CFU/lung (2×) and 1.64 Log10 CFU/lung and 1.94 Log10 CFU/lung
[6]; 120mg/kg/d
  Tukey HSD diff, Pre-treatment minus treated group (Log10 CFU/lung): 0.69
  Tukey HSD diff, Vehicle minus treated group (Log10 CFU/lung): 1.074
  Log10 CFU/lung: 6.56 Log10 CFU/lung and 6.03 Log10 CFU/lung and 7.00 Log10 CFU/lung
[6]; 240mg/kg/d
  Tukey HSD diff, Pre-treatment minus treated group (Log10 CFU/lung): 3.307
  Tukey HSD diff, Vehicle minus treated group (Log10 CFU/lung): 3.691
  Log10 CFU/lung: 4.07 Log10 CFU/lung and 3.82 Log10 CFU/lung and 3.85 Log10 CFU/lung
[7]; 45 mg/kg/d IP in 3 divided doses every 8 h, 24 h
  reduction in CFU/thigh beyond polymyxin B: > 2.0 log10 CFU/thigh
[7]; 45mg/kg/d, one way ANOVA comparison, Pre-treament - treatment
  diff of mean Log10 CFU/lung, Pre-treament minus treatment: 5.655 log10 CFU/thigh
[7]; 45mg/kg/d, one way ANOVA comparison, Vehicle - treatment
  diff of mean Log10 CFU/lung, Vehicle minus treatment: 5.9625 log10 CFU/thigh
[7]; both 45mg/kg/d, one way ANOVA comparison, Polymyxin B - F365
  diff of mean Log10 CFU/lung, Polymyxin B minus F365: 2.515 log10 CFU/thigh
[7]; neutropenic mouse thigh infection, 45mg/kg/d, Thigh 1 (Supp Fig. 4)
  Log10 CFU/lung, Thigh 1: 2.83 log10 CFU/thigh
[7]; neutropenic mouse thigh infection, 45mg/kg/d, Thigh 2 (Supp Fig. 4)
  Log10 CFU/lung, Thigh 2: 0 log10 CFU/thigh
[7]; neutropenic mouse thigh infection, 45mg/kg/d, Thigh 3 (Supp Fig. 4)
  Log10 CFU/lung, Thigh 3: 3.13 log10 CFU/thigh
[7]; neutropenic mouse thigh infection, 45mg/kg/d, Thigh 4 (Supp Fig. 4)
  Log10 CFU/lung, Thigh 4: 0 log10 CFU/thigh
[8]; 5 mg/kg IP, 0.28 h
  Plasma concentration, single mouse: 6.79
[8]; mouse, in vivo, ip, 5 mg/kg
  AUC(0-inf): 7920 ng·h/mL
  half-life: 18 min
